The values that follow are results of earlier work, collected in patent publication US12491200B2, “Compositions and methods using cannabinoids for treating stammering/stuttering and symptoms of Tourette syndrome” (priority 2019, dated 2025).

One series deals with tic disorders. The note with it: for tic symptom score: compared with placebo; for most common adverse events: tic disorders.
In the next series the test system is Tourette syndrome. The following applies: patients aged between 16 and 19; very high doses.

Turning to `Cc1nc2n(c(=O)c1CCN1CCC(c3noc4cc(F)ccc34)CC1)CCCC2` [risperidone], the speech fluency result in the series with developmental stuttering was “improve speech fluency”. Moreover, in the series on tic disorders, the tic symptom score entry was “significantly improve tic symptom score”; the “most common adverse events” value is “drowsiness and appetite”.
`OCCOCCN1CCN(C2=Nc3ccccc3Sc3ccccc32)CC1` [quetiapine]: the tic symptom score result in the series on tic disorders was “significantly improve tic symptom score”.
`O=C(CCCN1CCC(O)(c2ccc(Cl)cc2)CC1)c1ccc(F)cc1` [haloperidol]: in the series on developmental stuttering, the speech fluency entry is reported as “improve speech fluency”. For the same compound, in the series with tic disorders, the tic symptom score result is recorded as “significantly improve tic symptom score”; the “most common adverse events” value was “drowsiness, extrapyramidal reactions, and dry mouth”.
For `O=C1CCc2ccc(OCCCCN3CCN(c4cccc(Cl)c4Cl)CC3)cc2N1` [aripiprazole], in the series on tic disorders, the tic symptom score result is listed as “significantly improve tic symptom score”; the “most common adverse events” value was “dizziness, nausea, and dry mouth”.
Take `CCCCCc1cc(O)c2c(c1)OC(C)(C)[C@@H]1CCC(C)=C[C@@H]21` [synthetic THC, delta-9-tetrahydrocannabinol]: in the series with Tourette syndrome, the “symptoms such as vocal blocking tics and comorbid conditions” value is “significant improvement”.
With `N[C@@H](Cc1ccc(O)c(O)c1)C(=O)O` [levodopa], in the series with developmental stuttering, the speech fluency result is “worsening speech fluency”.
On to `O=C1Cc2cc(CCN3CCN(c4nsc5ccccc45)CC3)c(Cl)cc2N1` [ziprasidone], for which the tic symptom score entry in the series on tic disorders is “significantly improve tic symptom score”.
Consider `CCN(CC)CCNC(=O)c1cc(S(C)(=O)=O)ccc1OC` [tiapride], for which the “most common adverse events” value in the series on tic disorders was “dizziness, nausea, and dry mouth”.
